Source: US11440888B2, “Microbiocidal quinoline carboxamide derivatives” (SYNGENTA CROP PROTECTION AG, priority 2018, dated 2022)

| melting point | Compound |
| --- | --- |
| 179 to 181 °C | Cc1c(NC(=O)C(Cl)(Cc2ccccc2)CC(F)(F)F)cnc2c(F)cccc12 (stereo not drawn) [E.01, 2-benzyl-2-chloro-4,4,4-trifluoro-N-(8-fluoro-4-methyl-3-quinolyl)butanamide] |
| 106 to 108 °C | O=C(Nc1cnc2c(F)cccc2c1)C(Cl)(Cc1ccccc1)CC(F)(F)F (stereo not drawn) [E.06, 2-benzyl-2-chloro-4,4,4-trifluoro-N-(8-fluoro-3-quinolyl)butanamide] |
| 140 to 141 °C | Cc1c(NC(=O)C(Cl)(Cc2ccccc2)CC(C)C)cnc2c(F)cccc12 (stereo not drawn) [E.05, 2-benzyl-2-chloro-N-(8-fluoro-4-methyl-3-quinolyl)-4-methyl-pentanamide] |
